Reference: patent publication US11472778B2, “Hepatitis C virus NS3/4A protease inhibitors” (priority 2017, dated 2022)
Like-named read-outs stand apart in the source and are kept apart here.

Columns and labels:
[1] = tested on: wild-type HCV replicon in Huh7 cells; assay: Cell-based drug susceptibility (replicon) assay, wild-type; details: Hepatitis C virus, read-out: Replicon EC50 (nM) WT
Procedure: (§1) Mutations (R155K, A516T, D168A and D168V) were constructed by site-directed mutagenesis using a Con1 (genotype 1b) luciferase reporter replicon containing the H77 (genotype 1a) NS3 sequence.
(§2) Replicon RNA of each protease variant was introduced into Huh7 cells by electroporation. Replication was then assessed in the presence of increasing concentrations of protease inhibitors by measuring luciferase activity (relative light units) 96 h after electroporation.
(§3) Mutations (R155K, D168A and A156T) were constructed by site-directed mutagenesis using a Con1 (genotype 1b) luciferase reporter replicon containing the H77 (genotype 1a) NS3 sequence.^6 Replicon RNA of each protease variant was introduced into Huh7 cells by electroporation. Replication was then assessed in the presence of increasing concentrations of protease inhibitors by measuring luciferase activity (relative light units) 96 h after electroporation.

[2] = target: T1, wild-type GT1a NS3/4A protease (UniProt P27958, C1185S, species not given); format: biochemical, Hepatitis C virus; details: read-out: Ki (nM) GT1a WT NS3/4A Protease
T1 construct: Ki (nM) GT1a WT NS3/4A Protease
Procedure: (§4) For each assay, 2 nM of NS3/4A protease (GT1, D168A and GT3) was pre-incubated at room temperature for 1 h with increasing concentration of inhibitors in assay buffer [50 mM Tris, 5% glycerol, 10 mM DTT, 0.6 mM LDAO, and 4% dimethyl sulfoxide]. Inhibition assays were performed in nonbinding surface 96-well black half-area plates (Corning) in a reaction volume of 60 μt. […] Three independent data sets were collected for each inhibitor with each protease construct.
as §4, with “(GT1a” for “(GT1, D168A”, “D168A)” for “GT3)”, “(50” for “[50”, “sulfoxide, pH 7.5).” for “sulfoxide].”, “non-binding” for “nonbinding”, “μL.” for “μt.”
(§5) For each assay, 2 nM of NS3/4A protease (GT1a, R155K and D168A) was pre-incubated at room temperature for 1 h with increasing concentration of inhibitors in assay buffer (50 mM Tris, 5% glycerol, 10 mM DTT, 0.6 mM LDAO, and 4% dimethyl sulfoxide, pH 7.5). Inhibition assays were performed in non-binding surface 96-well black half-area plates (Corning) in a reaction volume of 60 μL. […] Three independent data sets were collected for each inhibitor with each protease construct. […] Gibbs free energy of binding was calculated using the following equation: ΔG=RTlnKi

[3] = target: GT1a D168A NS3/4A protease; format: biochemical, Hepatitis C virus; details: Table 3; Ki D168A relative to GT1a WT
Procedure: as §4
(§6) For each assay, 2 nM of NS3/4A protease (GT1a and D168A) was pre-incubated at room temperature for 1 h with increasing concentration of inhibitors in assay buffer (50 mM Tris, 5% glycerol, 10 mM DTT, 0.6 mM LDAO, and 4% dimethyl sulfoxide, pH 7.5). Inhibition assays were performed in non-binding surface 96-well black half-area plates (Corning) in a reaction volume of 60 μL. […] Three independent data sets were collected for each inhibitor with each protease construct.
as §5

[4] = target: T2, GT1a D168A NS3/4A protease (UniProt P27958, C1185S/D1194A, species not given); format: biochemical, Hepatitis C virus; details: read-out: Ki (nM) GT1a D168A NS3/4A Protease
T2 construct: Ki (nM) GT1a D168A NS3/4A Protease
Procedure: as §4, §6, §5

[5] = tested on: HCV replicon D168V variant in Huh7 cells; assay: microbe, parasite or virus in culture; format: cell-based, Hepatitis C virus; details: for EC50: Hepatitis C virus; for Replicon EC50 (Fold change) D168V: Table 4, relative to WT replicon
Procedure: as §1
Replicon RNA of each protease variant was introduced into Huh7 cells by electroporation. Replication was then assessed in the presence of increasing concentrations of protease inhibitors by measuring luciferase activity (relative light units) 96 h after electroporation. […]

[6] = tested on: HCV replicon D168A variant in Huh7 cells; assay: microbe, parasite or virus in culture; format: cell-based, Hepatitis C virus; details: for EC50: Hepatitis C virus; for Replicon EC50 (Fold change) D168A: Table 4, relative to WT replicon
Procedure: as §1, §2, §3

[7] = tested on: HCV replicon R155K variant in Huh7 cells; assay: microbe, parasite or virus in culture; format: cell-based, Hepatitis C virus; details: for EC50: Hepatitis C virus; for Replicon EC50 (Fold change) R155K: Table 4, relative to WT replicon
Procedure: as §1, §2, §3

[8] = tested on: HCV replicon A156T variant in Huh7 cells; assay: microbe, parasite or virus in culture; format: cell-based, Hepatitis C virus; details: for EC50: Hepatitis C virus; for Replicon EC50 (Fold change) A156T: Table 4, relative to WT replicon
Procedure: as §1, §2, §3

GT3a NS3/4A protease = target: T3, GT3a NS3/4A protease (Hepatitis C virus genotype 3a, UniProt Q81495); assay: biochemical; details: for Ki (Fold change) GT3a NS3/4A Protease: Ki GT3a relative to GT1a WT
T3 construct: drug-resistant variant D168A, and GT3a NS3/4A protease; made in house; host or cells: Escherichia coli BL21(DE3)
Procedure: as §4

[9] = Huh-7, 96 h, Table 2, Huh7 cells, luciferase 96 h
[10] = Huh-7, 96 h, read-out: Replicon EC50 (nM) D168V, Table 2, Huh7 cells, luciferase 96 h
[11] = Huh-7, read-out: Replicon EC50 (nM) D168V, Table 4
[12] = Huh-7, 96 h, read-out: Replicon EC50 (nM) D168A, Table 2, Huh7 cells, luciferase 96 h
[13] = Huh-7, read-out: Replicon EC50 (nM) D168A, Table 4
[14] = Huh-7, 96 h, read-out: Replicon EC50 (nM) R155K, Table 2, Huh7 cells, luciferase 96 h
[15] = Huh-7, read-out: Replicon EC50 (nM) R155K, Table 4
[16] = Huh-7, 96 h, read-out: Replicon EC50 (nM) A156T, Table 2, Huh7 cells, luciferase 96 h
[17] = Huh-7, read-out: Replicon EC50 (nM) A156T, Table 4

T3 sequence (Q81495 1033-1214): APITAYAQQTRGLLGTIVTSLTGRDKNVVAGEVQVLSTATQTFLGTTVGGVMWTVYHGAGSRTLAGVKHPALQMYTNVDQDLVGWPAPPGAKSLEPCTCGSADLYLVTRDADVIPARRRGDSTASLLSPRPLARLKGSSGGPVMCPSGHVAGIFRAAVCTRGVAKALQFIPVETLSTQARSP

Compound | EC50 [1, 9] [nM] | EC50 ([1]; Huh-7, Table 4) [nM] | Ki ([2]; Table 1) [nM] | Ki ([2]; Table 3) [nM] | Ki (Fold change) GT1a D168A NS3/4A Protease [3] | Ki ([4]; Table 1) [nM] | Ki ([4]; Table 3) [nM] | EC50 [5, 10] [nM] | EC50 [5, 11] [nM] | Replicon EC50 (Fold change) D168V [5] | EC50 [6, 12] [nM] | EC50 [6, 13] [nM] | Replicon EC50 (Fold change) D168A [6] | EC50 [7, 14] [nM] | EC50 [7, 15] [nM] | Replicon EC50 (Fold change) R155K [7] | EC50 [8, 16] [nM] | EC50 [8, 17] [nM] | Replicon EC50 (Fold change) A156T [8] | Ki (GT3a NS3/4A protease) [nM] | further results
COc1ccc2nc(C(F)(F)F)c(O[C@@H]3C[C@H]4C(=O)N[C@]5(C(=O)NS(=O)(=O)C6CC6)C[C@H]5/C=C\CCCCC[C@H](NC(=O)OC(C)(C)C)C(=O)N4C3)nc2c1 [Compound 18d] | 1.98 | 1.98 | 13.3 | 13.3 | (12) fold | 157 | 157 ± 12 | 17.1 | 17.1 | (9) fold | 16.8 | 16.8 | (8) fold | 3.45 | 3.45 | (2) fold | 36.2 | 36.2 | (18) fold | 344 | Ki (Fold change) GT3a NS3/4A Protease (GT3a NS3/4A protease; Table 3): (26) fold
COc1ccc2nc(C(F)(F)F)c(O[C@@H]3C[C@H]4C(=O)N[C@]5(C(=O)NS(=O)(=O)C6(C)CC6)C[C@H]5/C=C\CCCCC[C@H](NC(=O)OC(C)(C)C)C(=O)N4C3)nc2c1 [Compound 19d, tert-Butyl ((2R,6S,13aS,14aR,16aS,Z)-2-((7-methoxy-3-(trifluoromethyl)quinoxalin-2-yl)oxy)-14a-(((1-methylcyclopropyl)sulfonyl)carbamoyl)-5,16-dioxo-1,2,3,5,6,7,8,9,10,11,13a,14,14a,15,16,16a-hexadecahydrocyclopropa[e]pyrrolo[1,2-a][1,4]diazacyclopentadecin-6-yl)carbamate] | 1.52 | 1.52 | 5.77 | 5.77 | (20) fold | 118 | 118 ± 13 | 8.31 | 8.31 | (5) fold | 8.64 | 8.64 | (6) fold | 2.3 | 2.3 | (2) fold | 20.5 | 20.5 | (13) fold | 231 | Ki (Fold change) GT3a NS3/4A Protease (GT3a NS3/4A protease; Table 3): (40) fold; Ki (GT3a NS3/4A protease; read-out: Ki (nM) GT3a NS3/4A Protease, Table 3): 231 ± 74 nM
CCc1nc2ccc(OC)cc2nc1O[C@@H]1C[C@H]2C(=O)N[C@]3(C(=O)NS(=O)(=O)C4CC4)C[C@H]3/C=C\CCCCC[C@H](NC(=O)OC3CCCC3)C(=O)N2C1 [Compound 22a, Cyclopentyl ((2R,6S,13aS,14aR,16aS,Z)-14a-((cyclopropylsulfonyl)carbamoyl)-2-((3-ethyl-7-methoxyquinoxalin-2-yl)oxy)-5,16-dioxo-1,2,3,5,6,7,8,9,10,11,13a,14,14a,15,16,16a-hexadecahydrocyclopropa[e]pyrrolo[1,2-a][1,4]diazacyclopentadecin-6-yl)carbamate] | 0.14 | 0.14 | 1.24 | 1.24 | (42) fold | 52.3 | 52.3 ± 3.2 | 11.9 | 11.9 | (85) fold | 3.6 | 3.6 | (26) fold | 2.08 | 2.08 | (15) fold | 11.8 | 11.8 | (84) fold | 211 | Ki (Fold change) GT3a NS3/4A Protease (GT3a NS3/4A protease; Table 3): (170) fold
COc1ccc2nc(C)c(O[C@@H]3C[C@H]4C(=O)N[C@]5(C(=O)NS(=O)(=O)C6CC6)C[C@H]5/C=C\CCCCC[C@H](NC(=O)OC5CCCC5)C(=O)N4C3)nc2c1 [Compound 22b, Cyclopentyl ((2R,6S,13aS,14aR,16aS,Z)-14a-((cyclopropylsulfonyl)carbamoyl)-2-((7-methoxy-3-methylquinoxalin-2-yl)oxy)-5,16-dioxo-1,2,3,5,6,7,8,9,10,11,13a,14,14a,15,16,16a-hexadecahydrocyclopropa[e]pyrrolo[1,2-a][1,4]diazacyclopentadecin-6-yl)carbamate] | 0.11 | 0.11 | 0.93 | 0.93 | (34) fold | 31.9 | 31.9 ± 2.5 | 4.32 | 4.32 | (39) fold | 2.63 | 2.63 | (24) fold | 0.89 | 0.89 | (8) fold | 2.88 | 2.88 | (26) fold | 147 | Ki (Fold change) GT3a NS3/4A Protease (GT3a NS3/4A protease; Table 3): (158) fold
COc1ccc2nc(C)c(O[C@@H]3C[C@H]4C(=O)N[C@]5(C(=O)NS(=O)(=O)C6(C)CC6)C[C@H]5/C=C\CCCCC[C@H](NC(=O)OC5CCCC5)C(=O)N4C3)nc2c1 [Compound 23b, Cyclopentyl ((2R,6S,13aS,14aR,16aS,Z)-2-((7-methoxy-3-methylquinoxalin-2-yl)oxy)-14a-(((1-methylcyclopropyl)sulfonyl)carbamoyl)-5,16-dioxo-1,2,3,5,6,7,8,9,10,11,13a,14,14a,15,16,16a-hexadecahydrocyclopropa[e]pyrrolo[1,2-a][1,4]diazacyclopentadecin-6-yl)carbamate] | 0.13 | 0.13 | 1.13 | 1.13 |  | 36.3 | 36.3 ± 1.8 |  |  |  | 2.16 | 2.16 |  | 1.09 | 1.09 |  | 3.99 | 3.99 |  | 121 | 
